Reference: ChEMBL document CHEMBL1128999, “Synthesis and evaluation of 2-aryl-4H-3,1-benzoxazin-4-ones as C1r serine protease inhibitors” (Bioorg Med Chem Lett, 1996)

Experiments:
[1] = target: T1, Complement C1r subcomponent (Homo sapiens, UniProt P00736); test: Inhibition of C1r serine protease
T1 sequence (P00736 whole entry): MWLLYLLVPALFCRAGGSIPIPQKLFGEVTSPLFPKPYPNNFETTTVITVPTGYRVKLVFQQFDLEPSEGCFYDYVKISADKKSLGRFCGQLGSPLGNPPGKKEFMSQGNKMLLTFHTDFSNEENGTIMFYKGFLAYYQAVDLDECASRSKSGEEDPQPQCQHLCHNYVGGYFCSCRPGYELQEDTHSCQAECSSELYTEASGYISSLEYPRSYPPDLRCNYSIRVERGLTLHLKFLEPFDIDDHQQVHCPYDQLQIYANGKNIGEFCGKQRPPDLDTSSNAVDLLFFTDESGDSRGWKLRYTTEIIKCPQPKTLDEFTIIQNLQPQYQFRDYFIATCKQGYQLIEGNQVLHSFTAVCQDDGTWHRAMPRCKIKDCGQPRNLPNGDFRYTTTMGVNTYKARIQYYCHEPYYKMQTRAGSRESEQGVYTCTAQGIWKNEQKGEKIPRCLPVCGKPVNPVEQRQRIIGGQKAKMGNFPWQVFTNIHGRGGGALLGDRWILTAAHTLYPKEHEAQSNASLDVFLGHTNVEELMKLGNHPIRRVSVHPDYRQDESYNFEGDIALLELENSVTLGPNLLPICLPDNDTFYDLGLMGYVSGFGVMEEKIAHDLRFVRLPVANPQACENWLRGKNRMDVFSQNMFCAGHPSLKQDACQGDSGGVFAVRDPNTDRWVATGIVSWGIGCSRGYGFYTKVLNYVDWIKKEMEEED

[2] = target: T1, Complement C1r subcomponent; test: (§1) Inhibitory activity against C1r serine protease
[3] = target: T1, Complement C1r subcomponent; test: as §1; remark: listed apart in the source
[4] = target: T1, Complement C1r subcomponent; test: Compound was evaluated for inhibitory activity against C1r serine protease in assay 2 at t=60 min.
[5] = target: T1, Complement C1r subcomponent; test: Compound was evaluated for inhibitory activity against C1r serine protease in assay 1
[6] = target: T2, Complement C1s subcomponent (Homo sapiens, UniProt P09871); test: Compound was evaluated for inhibitory activity against C1s serine protease.
T2 sequence (P09871 whole entry): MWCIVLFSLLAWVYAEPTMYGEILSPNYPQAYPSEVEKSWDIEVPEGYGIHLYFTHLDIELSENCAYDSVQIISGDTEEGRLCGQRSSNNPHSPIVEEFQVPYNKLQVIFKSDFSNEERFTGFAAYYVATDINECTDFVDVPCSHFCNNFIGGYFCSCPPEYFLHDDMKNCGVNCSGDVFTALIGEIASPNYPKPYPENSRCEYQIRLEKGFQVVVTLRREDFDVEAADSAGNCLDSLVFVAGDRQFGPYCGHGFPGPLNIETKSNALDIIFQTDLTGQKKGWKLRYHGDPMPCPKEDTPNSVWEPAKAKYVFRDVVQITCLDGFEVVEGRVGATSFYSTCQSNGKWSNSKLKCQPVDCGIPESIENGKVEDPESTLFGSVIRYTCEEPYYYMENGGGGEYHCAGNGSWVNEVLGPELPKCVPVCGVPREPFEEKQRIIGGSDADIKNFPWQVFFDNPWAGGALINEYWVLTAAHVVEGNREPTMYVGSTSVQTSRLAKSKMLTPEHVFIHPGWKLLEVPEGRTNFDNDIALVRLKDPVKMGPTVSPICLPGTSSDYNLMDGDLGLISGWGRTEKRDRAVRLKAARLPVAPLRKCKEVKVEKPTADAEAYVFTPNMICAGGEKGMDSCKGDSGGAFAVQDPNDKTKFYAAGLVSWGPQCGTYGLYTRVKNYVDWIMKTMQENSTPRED

Serine protease 1 = Serine protease 1 (Homo sapiens, UniProt P07477); test: Compound was evaluated for inhibitory activity against Trypsin.
Plasminogen = Plasminogen (Homo sapiens, UniProt P00747); test: Compound was evaluated for inhibitory activity against plasmin.
[7] = target: T1, Complement C1r subcomponent; test: Compound was evaluated for inhibitory activity against C1r serine protease.
Prothrombin = Prothrombin (Homo sapiens, UniProt P00734); test: Compound was evaluated for inhibitory activity against Thrombin.
Kallikrein-1 = Kallikrein-1 (Homo sapiens, UniProt P06870); test: Compound was evaluated for inhibitory activity against Kallikrein.
[8] = target: T3, Complement C1r subcomponent (Homo sapiens) (UniProt P00736); conditions: at 10 µM
T3 sequence (whole entry): T1 sequence (P00736 whole entry)

[9] = target: T3, Complement C1r subcomponent (Homo sapiens); test: Compound was evaluated for percentage inhibitory activity against C1r serine protease in assay 1 at a concentration of 10 uM

Sequence of Kallikrein-1 (P06870 whole entry): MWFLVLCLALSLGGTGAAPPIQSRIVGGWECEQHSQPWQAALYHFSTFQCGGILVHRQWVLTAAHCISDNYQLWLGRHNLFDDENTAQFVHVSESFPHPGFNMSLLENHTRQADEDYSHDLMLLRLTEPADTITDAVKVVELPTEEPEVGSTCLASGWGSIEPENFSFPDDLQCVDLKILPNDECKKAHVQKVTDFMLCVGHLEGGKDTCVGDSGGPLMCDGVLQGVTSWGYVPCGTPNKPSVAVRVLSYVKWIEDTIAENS
Sequence of Plasminogen (P00747 97-580 limits assumed): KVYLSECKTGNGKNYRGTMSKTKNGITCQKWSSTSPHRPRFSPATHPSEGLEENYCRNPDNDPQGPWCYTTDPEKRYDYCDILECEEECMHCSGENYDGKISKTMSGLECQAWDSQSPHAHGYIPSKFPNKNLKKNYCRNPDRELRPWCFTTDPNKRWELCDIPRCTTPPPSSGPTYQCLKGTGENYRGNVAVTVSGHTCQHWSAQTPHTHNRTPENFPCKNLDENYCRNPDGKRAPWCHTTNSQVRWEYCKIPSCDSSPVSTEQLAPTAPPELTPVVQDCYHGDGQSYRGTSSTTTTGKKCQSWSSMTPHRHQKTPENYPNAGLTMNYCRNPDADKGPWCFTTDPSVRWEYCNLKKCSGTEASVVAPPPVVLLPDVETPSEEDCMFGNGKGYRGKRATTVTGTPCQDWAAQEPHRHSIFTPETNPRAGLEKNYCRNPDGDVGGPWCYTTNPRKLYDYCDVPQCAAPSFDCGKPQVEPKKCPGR
Sequence of Plasminogen (P00747 581-810 limits assumed): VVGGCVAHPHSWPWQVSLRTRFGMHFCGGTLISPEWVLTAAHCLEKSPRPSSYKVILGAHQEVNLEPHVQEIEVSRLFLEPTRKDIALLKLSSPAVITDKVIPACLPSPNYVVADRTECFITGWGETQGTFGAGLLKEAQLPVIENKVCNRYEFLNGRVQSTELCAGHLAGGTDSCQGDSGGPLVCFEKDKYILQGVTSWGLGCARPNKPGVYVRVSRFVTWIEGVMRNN
Sequence of Serine protease 1 (P07477 whole entry): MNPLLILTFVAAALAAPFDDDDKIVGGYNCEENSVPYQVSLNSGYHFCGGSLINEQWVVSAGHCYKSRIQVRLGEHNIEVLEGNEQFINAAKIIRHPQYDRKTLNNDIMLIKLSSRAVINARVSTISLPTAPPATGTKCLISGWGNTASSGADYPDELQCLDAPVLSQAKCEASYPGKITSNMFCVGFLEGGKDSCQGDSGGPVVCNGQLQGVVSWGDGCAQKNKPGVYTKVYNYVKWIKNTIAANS

SMILES	IC50 [1] [µM]	IC50 [2] [µM]	IC50 [3] [µM]	also measured
O=c1oc(-c2ccccc2I)nc2cc(Cl)c(Cl)cc12	1.7	> 62.5	> 62.5	
O=c1oc(-c2ccccc2I)nc2cc3ccccc3cc12	0.7	> 62.5	> 62.5	
COc1cc2nc(-c3ccccc3I)oc(=O)c2cc1OC		> 62.5	> 62.5	inhibition [9]: 18%
COc1ccc2c(=O)oc(-c3ccccc3I)nc2c1		> 62.5	> 62.5	inhibition [9]: 27%
O=c1oc(-c2ccccc2I)nc2cccc(Cl)c12	3	57	13.5	
N=C(N)c1ccc2cc(OC(=O)c3ccc(N=C(N)N)cc3)ccc2c1 [NAFAMOSTAT]	1	12		IC50 [6]: 0.14 µM; IC50 [7]: 1.04 µM; IC50 (Prothrombin): 0.29 µM; IC50 (Kallikrein-1): 0.65 µM
O=c1oc(-c2ccccc2C(F)(F)F)nc2ccccc12	4.2	> 62.5	35.4	

Second part, led by results:

IC50 [1] [µM]	IC50 [2] [µM]	IC50 [3] [µM]	SMILES	also measured
36.3	> 62.5	15	O=c1oc(-c2ccccc2[N+](=O)[O-])nc2ccccc12	
3	27.3	7.8	O=c1oc(-c2ccccc2I)nc2ccc(Cl)cc12	
		16.7	O=c1oc(-c2ccccc2I)nc2ccccc12	IC50 [4]: 50 µM; IC50 [5]: 1.4 µM; IC50 [6]: 1.25 µM; IC50 (Serine protease 1): 15.3 µM; IC50 (Plasminogen): 6.68 µM; IC50 [7]: 1.37 µM; IC50 (Prothrombin): 0.51 µM; IC50 (Kallikrein-1): 9.89 µM
	> 62.5	> 62.5	O=C(O)c1ccccc1-c1nc2ccccc2c(=O)o1	inhibition [8]: 25%
9.5	46	32	O=c1oc(-c2ccccc2Br)nc2ccccc12	
5	> 62.5	> 62.5	COc1ccc2nc(-c3ccccc3I)oc(=O)c2c1	
	> 62.5	22	O=c1oc(-c2ccccc2I)nc2cc([N+](=O)[O-])ccc12	inhibition [8]: 0%
6	40	26	O=c1oc(Cc2ccccc2I)nc2ccccc12	
